Test [1] is described as follows: Inhibition of fungal FcyB expressed in Aspergillus nidulans assessed as reduction in FcyB-mediated [2,8-3H]-adenine accumulation. On the set-up: species or system Fungi.
Test [2] has as its target Uric acid-xanthine permease (Emericella nidulans (strain FGSC A4 / ATCC 38163 / CBS 112.46 / NRRL194 / M139) (Aspergillus nidulans)) (UniProt Q07307). The test is described as follows: Inhibition of fungal UapA expressed in Aspergillus nidulans assessed as reduction in UapA-mediated [8-3H]-xanthine accumulation at 0.5 mM. The settings on record: Fungi.
For test [3], the system named is Fungi. Briefly: Inhibition of fungal FcyB expressed in Aspergillus nidulans assessed as FcyB-mediated [2,8-3H]-adenine accumulation rate at 500 uM relative to untreated control. More on the design: scale not given: the % may be the effect or the level left.
The test system of test [4] is Fungi. Briefly: Inhibition of fungal FcyB expressed in Aspergillus nidulans assessed as reduction in FcyB-mediated at 0.5 mM.
The target of test [5] is T1, Uncharacterized protein (Emericella nidulans (strain FGSC A4 / ATCC 38163 / CBS 112.46 / NRRL194 / M139) (Aspergillus nidulans)) (UniProt G5EB00).
T1 sequence (whole entry): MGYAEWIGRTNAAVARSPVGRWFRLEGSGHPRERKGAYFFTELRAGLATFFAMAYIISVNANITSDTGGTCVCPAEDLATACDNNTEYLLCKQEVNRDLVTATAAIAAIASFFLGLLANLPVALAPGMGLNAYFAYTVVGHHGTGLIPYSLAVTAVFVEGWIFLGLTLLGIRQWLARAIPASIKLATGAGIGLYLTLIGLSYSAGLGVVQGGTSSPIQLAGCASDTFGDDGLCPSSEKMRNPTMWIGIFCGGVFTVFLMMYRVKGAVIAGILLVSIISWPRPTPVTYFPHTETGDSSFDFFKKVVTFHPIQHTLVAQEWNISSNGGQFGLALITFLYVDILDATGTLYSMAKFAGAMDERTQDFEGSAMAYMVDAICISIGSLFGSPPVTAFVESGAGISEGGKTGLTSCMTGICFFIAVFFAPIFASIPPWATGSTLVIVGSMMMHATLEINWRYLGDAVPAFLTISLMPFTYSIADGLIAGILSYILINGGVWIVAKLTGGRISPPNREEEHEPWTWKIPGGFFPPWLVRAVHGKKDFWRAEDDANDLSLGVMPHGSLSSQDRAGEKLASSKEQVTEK
The test is described as follows: Inhibition of fungal AzgA expressed in Aspergillus nidulans assessed as reduction in AzgA-mediated [2,8-3H]-adenine accumulation at 0.5 mM. The settings on record: Fungi.

In the next test the target is T2, Uncharacterized protein (Emericella nidulans (strain FGSC A4 / ATCC 38163 / CBS 112.46 / NRRL194 / M139) (Aspergillus nidulans), UniProt G5EB00).
T2 sequence (G5EB00 whole entry): T1 sequence (whole entry)
Briefly: Inhibition of fungal AzgA expressed in Aspergillus nidulans assessed as reduction in AzgA-mediated [2,8-3H]-adenine accumulation. More on the design: species or system Fungi.

SMILES strings stand for the structures. Activity calls are given as the source filed them. The calls are words filed in the database; no cut-off is given here.

In general, Ki refers to a measure of affinity in units of concentration, obtained from inhibition or displacement.

Uric acid-xanthine permease (Emericella nidulans (strain FGSC A4 / ATCC 38163 / CBS 112.46 / NRRL194 / M139) (Aspergillus nidulans)), sequence (Q07307 whole entry, looked up): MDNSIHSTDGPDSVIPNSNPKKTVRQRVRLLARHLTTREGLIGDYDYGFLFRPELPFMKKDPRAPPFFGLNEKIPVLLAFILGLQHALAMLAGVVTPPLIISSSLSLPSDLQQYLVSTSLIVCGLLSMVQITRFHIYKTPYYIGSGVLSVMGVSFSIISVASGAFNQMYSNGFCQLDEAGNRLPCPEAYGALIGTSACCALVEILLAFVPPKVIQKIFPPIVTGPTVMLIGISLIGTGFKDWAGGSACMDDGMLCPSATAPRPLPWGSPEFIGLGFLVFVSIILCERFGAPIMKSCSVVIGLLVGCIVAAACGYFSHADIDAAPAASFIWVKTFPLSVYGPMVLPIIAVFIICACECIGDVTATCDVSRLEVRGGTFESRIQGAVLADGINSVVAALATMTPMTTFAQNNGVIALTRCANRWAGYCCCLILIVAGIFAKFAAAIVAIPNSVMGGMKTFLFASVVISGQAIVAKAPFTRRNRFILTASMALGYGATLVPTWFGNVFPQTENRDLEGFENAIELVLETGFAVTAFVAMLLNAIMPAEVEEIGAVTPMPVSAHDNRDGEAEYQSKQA

As for `CN1CCN(c2nccc3[nH]c(-c4ccccc4O)nc23)CC1`, in test [1], the Ki was found to be 49 µM. In addition, the inhibition result in test [2] was “inactive”. Also, the Activity in the test with Fungi [3] is under 10%.

On to `CN1CCN(c2nccc3[nH]c(-c4ccncc4)nc23)CC1`, for which, in test [2], the inhibition result is “inactive”.

Regarding `CC(C)n1cnc2c(NCc3ccccc3)nccc21`, the Ki in test [1] turned out to be 5 µM.

As to `CN1CCN(c2nccc3c2nc(-c2ccccc2O)n3Cc2ccccc2O)CC1`, the inhibition result (in test [2]; in the test on Fungi [4]) was “inactive” throughout.

As for `Nc1ccnc2c1nc(-c1ccccc1O)n2Cc1ccccc1`, the inhibition entry (in test [2]; in the test with Fungi [4]) was “inactive” throughout.

On to `COc1ccc(OC)c(-c2nc3c(N)ccnc3n2Cc2ccccc2)c1`, for which the inhibition result (in test [2]; in the test with Fungi [4]) was “inactive” each time.

Regarding `Nc1ccnc2c1nc(-c1ccc([N+](=O)[O-])cc1)n2Cc1ccccc1`, the inhibition entry (in test [2]; in the test with Fungi [4]) was “inactive” in each case.

As for `O=c1[nH]cnc2nc[nH]c12` [HYPOXANTHINE], the Ki in test [1] is 11 µM.

As to `COc1ccc(OC)c(-c2nc3c(N4CCN(C)CC4)nccc3[nH]2)c1`, the Ki in test [1] amounted to 100 µM. Also, the inhibition entry in test [2] was “inactive”. The Activity in the test on Fungi [3] was under 10%.

Regarding `c1ccc(CNc2nccc3[nH]c(-c4ccncc4)nc23)cc1`, the Ki in test [1] turned out to be 72 µM. In addition, in test [5], the inhibition result is “Active”. For the same compound, in test [2], the inhibition result was “inactive”. Further, the Activity in the test with Fungi [3] was under 10%.

Consider `Oc1nc2c(NCc3ccccc3)nccc2[nH]1`, for which, in test [1], the Ki is 74 µM. Further, in test [2], the inhibition entry was “inactive”.

`Nc1ccnc2c1nc(-c1ccncc1)n2Cc1ccccc1`: the inhibition entry (in test [2]; in the test on Fungi [4]) was “inactive” each time.

In the case of `Sc1nc2c(NCc3ccccc3)nccc2[nH]1`, the inhibition result in test [2] was “inactive”.

As for `CN1CCN(c2nccc3[nH]c(-c4ccc([N+](=O)[O-])cc4)nc23)CC1`, the Ki in test [1] is 106 µM. For the same compound, the inhibition entry in test [5] is “Active”. In addition, the inhibition result in test [2] was “inactive”.

In the case of `COc1ccc(OC)c(-c2nc3c(NCc4ccccc4)nccc3[nH]2)c1`, the Ki in test [1] was 42 µM. In addition, in test [5], the inhibition result was “Active”. Moreover, in test [2], the inhibition result was “inactive”. Further, in the test with Fungi [3], the Activity is under 10%.

As for `CN1CCN(c2nccc3c2ncn3C2CCCC2)CC1`, the Ki in test [1] was found to be 38 µM.

`Nc1ccnc2c1nc(S)n2Cc1ccccc1`: the inhibition result (in test [2]; with Fungi [4]) was “inactive” in each case.

For the compound `O=[N+]([O-])c1ccc(-c2nc3c(NCc4ccccc4)nccc3[nH]2)cc1`, the inhibition entry in test [2] is “inactive”.

In the case of `Nc1ccnc2c1nc(O)n2Cc1ccccc1`, the inhibition entry (in test [2]; in the test with Fungi [4]) was “inactive” each time.

As for `Oc1ccccc1-c1nc2c(NCc3ccccc3)nccc2[nH]1`, the Ki in test [1] was 82 µM; on Uncharacterized protein it was 58 µM. The inhibition entry in test [5] was “Active”. The inhibition result in test [2] was “inactive”. Besides, the Activity in the test on Fungi [3] is under 10%.

Take `CN1CCN(c2nccc3c2nc(-c2ccncc2)n3Cc2ccncc2)CC1`: in test [2], the inhibition result was “inactive”.

Take `CN1CCN(c2nccc3[nH]c(S)nc23)CC1`: the inhibition result in test [2] was “inactive”.

In the case of `Nc1[nH]cnc2ncnc1-2` [ADENINE], the inhibitory constant (Ki) in test [1] is 7 µM.

On to `CN1CCN(c2nccc3[nH]c(O)nc23)CC1`, for which the Ki in test [1] was 19 µM. Moreover, the inhibition result in test [2] is “inactive”. Moreover, the Activity in the test on Fungi [3] was under 10%.

Source of the values: ChEMBL document CHEMBL4152333, “Structure-activity relationships in fungal nucleobases transporters as dissected by the inhibitory effects of novel purine analogues” (Eur J Med Chem, 2018).
